Data: US5837219A, “Labelled acyl-L-carnitine and diagnostic agent” (Japan Science and Technology Corporation, priority 1995, dated 1998)
“Also recorded” adds a separate entry of the source.

Experiments:
[1] = PET uptake of labelled compounds into the brain of anesthetized rhesus monkeys after intravenous administration; type: in vivo, rhesus monkey; settings: i.v.; for uptake value into the brain: rhesus monkey under anesthesia, whole brain (WB 9), FIG. 1
From the text: ACN, ACM, CRN and ACC prepared in Examples 1, 3 and 5 in equal amounts were intravenously administered to rhesus monkeys under anesthesia, respectively, at intervals of two hours, and the uptake value of those labelled compounds into the brain (whole brain: WB 9) and into the temporal muscle (TEM 11) was traced with time by the use of PET. The uptake value was obtained by the following calculation: [formula]

[2] = PET uptake of ACM into the whole brain of a normal volunteer, rest and task condition; type: in vivo, human (normal volunteer); settings: i.v., FIG. 2
Protocol: ACM synthesized in Example 3 was intravenously administered to a normal volunteer, and the uptake value of ACM into the whole brain was measured by use of PET in both the rest condition (WR 9) and task condition (calculation task, memory task: WB9-TASK).

[3] = PET uptake of ACM into the whole brain, normal volunteers versus CFS patients; type: in vivo, human (normal volunteers; settings: i.v., normal n=5, CFS n=6 (FIG. 3: n=5)
Protocol: (§1) ACM synthesized in Example 1 was intravenously administered to normal volunteers (n=5) and CFS patients (n=6), and the ACM uptake values into the whole brain and visual cortex were measured with time by means of PET.

[4] = PET uptake of ACM into the visual cortex, normal volunteers versus CFS patients; type: in vivo, human (normal volunteers; settings: i.v.
Protocol: as §1

[5] = ACM uptake value in blood plasma (hematocrit tube and imaging plate), normal volunteers versus CFS patients; type: in vivo, human (normal volunteers; settings: normal n=5, CFS n=6, FIG. 6
Protocol: (§2) Blood was sampled from the normal volunteers and the CFS patients and the ACM uptake values in the blood plasma and blood cells thereof was measured by the combined method of hematocrit tube and imaging plate.

[6] = ACM uptake into erythrocytes and erythrocyte/blood plasma ratio (hematocrit tube and imaging plate), normal volunteers versus CFS patients; type: in vivo, human (normal volunteers
Protocol: as §2

SMILES: CC(=O)O[C@H](CC(=O)[O-])C[N+](C)(C)[11CH3] [ACC, acetyl-L-carnitine with the same label]
- uptake value into the brain [1]: not taken up into the brain almost at all

SMILES: C[N+](C)(C)C[C@@H](CC(=O)[O-])OC([11CH3])=O [ACM, Acetyl-L-carnitine with the ^11 C-labelled secondary carbon atom of acetyl group]
- uptake value into the brain [1]: excellent
- change of brain uptake with time ([1]; rhesus monkey, up to 60 minutes after the administration): almost linearly increased up to 60 minutes after the administration
- uptake into the whole brain in the task condition relative to rest ([2]; calculation and memory task versus rest): about twice
- uptake into the whole brain with time ([2]; rest condition): taken up with time even during rest condition
- increase with time in the ACM uptake value into the whole brain, CFS patients versus normal volunteers [3]: significantly lower than that in the normal volunteers
- difference between CFS patients and normal volunteers in ACM uptake, visual cortex versus whole brain ([4]; FIG. 3 and FIG. 4): particularly observed in the visual cortex than in the whole brain
- increase with time in the ACM uptake value into the visual cortex, CFS patients versus normal volunteers ([4]; normal n=5, CFS n=6, FIG. 4): significantly lower than that in the normal volunteers
- ACM uptake value in blood plasma, course with time, normal volunteers and CFS patients [5]: almost the same course; also recorded: no difference
- ratio erythrocyte/blood plasma of ACM uptake value, increase with time, CFS patients ([6]; CFS patients n=2, FIG. 7): inhibited in the CFS patients
- ACM uptake value into erythrocyte, CFS patients versus normal volunteers ([6]; inferred from erythrocyte/blood plasma ratio and unchanged plasma uptake): significantly lower than that in the normal volunteers
- ratio erythrocyte/blood plasma of ACM uptake value, change with time, normal subjects ([6]; normal subjects n=2, FIG. 7): increased with time in the normal subjects

SMILES: C[11C](=O)O[C@H](CC(=O)[O-])C[N+](C)(C)C [ACN, Acetyl-L-carnitine with ^11 C-labelled primary carbon atom of acetyl group]
- uptake value into the brain [1]: taken up into the brain only slightly

SMILES: C[N+](C)([11CH3])C[C@H](O)CC(=O)[O-] [CRN, L-carnitine with the ^11 C-labelled N-methyl carbon atom of carnitine, reference compound]
- uptake value into the brain [1]: not taken up into the brain almost at all
